Counter-ions that a name gives are not always drawn. Activity calls are given as the source filed them.

The AC50 is the concentration giving half of the maximal activity seen. The EC50 is the concentration that produces a half-maximal response. Usually IC50 stands for the midpoint of a concentration-inhibition curve.

Experiment [1] can be described thus: IGROV1 ovarian cancer cell cytotoxicity, dose response, PAX8 inhibitor project, plate reader, dry powder samples (AID 743043). Format: functional, cell-based. Particulars: IGROV-1.
Experiment [2] is described as follows: A2780 ovarian cancer cell cytotoxicity, dose response, cytotoxicity control, plate reader, dry powder samples (AID 743046). Format: functional, cell-based.
The nature of experiment [3]: cytotoxicity in OVCAR8 ovarian cancer cells, dose response, PAX8 project, cell-based, plate reader, dry powder samples (AID 743197). Format: functional. Particulars: OVCAR-8.
In the next experiment the target is Paired box protein Pax-8 (Homo sapiens, UniProt Q06710). As to the kind of experiment: inhibitors of PAX8-driven TPO luciferase reporter, dose response, RMG-I cells, cherry-pick (AID 687027).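 Further: luciferase reporter driven by Pax8 target thyroperoxidase promoter measured by SteadyGlo luminescence.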 Format: functional, cell-based. (Reporter assays use an easily measured gene product as a stand-in for the process of interest.)
Experiment [4] is described as follows: NIH:OVCAR-3 ovarian cancer cell cytotoxicity, dose response, PAX8 inhibitor project, plate reader, dry powder samples (AID 743044). Type of experiment: functional, cell-based.
Experiment [5] in a line: HEK293T cytotoxicity, dose response, cytotoxicity control for miR-122 modulator project, cell-based, inhibitor set, cherry-pick, set 2 (AID 720697). Type of experiment: functional.
The nature of experiment [6]: T. cruzi growth inhibition in host cells, dose response, cell-based, plate reader, dry powder, set 2 (AID 652275). Format: functional.
The subject of another experiment is H4. Briefly: Luminescence Cell-Based Dose Response HTS to Identify Activators of 5'UTR Stem-Loop Driven Prion Protein mRNA Translation in H4 Neuroglioblastoma Cells. [Related pubchem assays: 1829 (Project Summary), 1814 (Primary HTS)]. Type of experiment: functional. Conditions: Homo sapiens.
Experiment [7] can be described thus: Luminescence Cell-Based Dose Confirmation to Identify Activators of 5'UTR Stem-Loop Driven Alpha-Synuclein mRNA Translation in H4 Neuroglioblastoma Cells. [Related pubchem assays: 1829 (Project Summary), 1814 (Primary HTS)]. Type of experiment: functional.
Experiment [8] can be described thus: Luminescence Cell-Based Dose Response HTS to Identify Activators of Luciferase Translation or Activity in H4 […] Cells. [Related pubchem assays: 1829 (Project Summary), 1814 (Primary HTS)]. Format: functional.
Experiment [9] in a line: Luminescence Cell-Based Dose Response to Identify Activators of Luciferase Translation or Activity in H4-C Neuroglioblastoma Cells. [Related pubchem assays: 1829 (Project Summary), 1814 (Primary HTS)]. Type of experiment: functional.
A short description of experiment [10]: Luminescence Cell-Based Dose Confirmation HTS to Identify Activators of 5'UTR Stem-Loop Driven Alpha-Synuclein mRNA Translation in H4 Neuroglioblastoma Cells. [Related pubchem assays: 1829 (Project Summary), 1814 (Primary HTS)]. Type of experiment: functional.
Experiment [11] can be described thus: Luminescence Cell-Based Dose Response to Identify Activators of 5'UTR Stem-Loop Driven Prion Protein mRNA Translation in H4-C Neuroglioblastoma Cells. [Related pubchem assays: 1829 (Project Summary), 1814 (Primary HTS)]. Format: functional.
The target in the next experiment is T1, Protein Tat (Human immunodeficiency virus type 1 group M subtype B (isolate HXB2)(HIV-1), UniProt P04608).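 Further: tat binding to TAR RNA read out by fluorescence polarization.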
T1 sequence (P04608 whole entry): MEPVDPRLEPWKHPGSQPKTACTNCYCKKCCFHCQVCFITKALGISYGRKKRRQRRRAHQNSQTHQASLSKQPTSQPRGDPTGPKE
Type of experiment: functional.

Experiment [12] in a line: P. falciparum ATP4 D1247Y mutant growth inhibitors, dose response, NITD609-resistant line, SYBR Green, dry powder (AID 1159571).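 Further: parasites synchronized at ring stage by sorbitol before testing.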 Format: functional, cell-based.
The nature of experiment [13]: P. falciparum Dd2 growth inhibitors, dose response, SYBR Green, dry powder samples (AID 1159566).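 Further: potency for growth inhibition with lower SYBR green DNA signal.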 Type of experiment: functional, cell-based.
Experiment [14] is described as follows: P. falciparum Dd2 growth inhibitors, dose response, SYBR Green, dry powder samples, set 9 (AID 1159568). Format: functional, cell-based.
The nature of experiment [15]: P. falciparum Dd2 growth inhibitors, dose response, SYBR Green, cherry-picked samples (AID 1159567). Format: functional, cell-based.
Experiment [16] is described as follows: P. falciparum 3D7-ScDHODH growth inhibitors, dose response, SYBR Green, dry powder samples (AID 1159570).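 Further: parasite growth measured after 72 hours of compound exposure.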 Type of experiment: functional, cell-based.
Experiment [17] can be described thus: cytotoxicity toward NIH3T3 fibroblasts, dose response, counter-screen, cell-based, ATP luminescence, mouse fibroblasts (AID 2010).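 Further: cells exposed to compound for about 90 hours before reading.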 Type of experiment: functional. Background: A counterscreen serves to expose hits that act by an unwanted route or on another target.
The nature of experiment [18]: inhibitors of intracellular T. cruzi replication, confirmation, NIH3T3 host cells, beta-gal luminescence (AID 2044).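 Further: intracellular parasites grown in NIH/3T3 mouse fibroblasts as host cells; luminescent beta-galactosidase reporter signal from transgenic T. cruzi replicating inside host cells; inhibitors lower the luminescence signal.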 Type of experiment: functional, cell-based.
For experiment [19], the target named is T2, Ubiquitin-conjugating enzyme E2 N (Homo sapiens, UniProt P61088).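 Further: Dose-response confirmation in a TR-FRET assay detecting UBC13-driven polyubiquitin chain formation, inhibition measured.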
T2 sequence (P61088 whole entry): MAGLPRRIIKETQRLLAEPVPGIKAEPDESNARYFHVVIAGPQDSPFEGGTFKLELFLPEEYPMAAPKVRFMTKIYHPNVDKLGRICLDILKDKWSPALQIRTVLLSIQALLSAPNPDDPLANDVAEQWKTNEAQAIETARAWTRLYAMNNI
Type of experiment: functional.

The nature of experiment [20]: Luminescence Cell-Based Dose Retest to Confirm Inhibitors of Cancer Stem Cells. [Related pubchem assays (depositor defined):AID2717, AID2721]. Type of experiment: functional. Conditions: Homo sapiens.
The test system of the next experiment is INS1. As to the kind of experiment: beta cell apoptosis inhibitors, cytokine rescue, dose response, luminescence, retest (AID 449756).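 Further: cell death triggered by IL-1 beta plus TNF-alpha plus IFN-gamma mixture; protective hits raise ATP signal compared with cytokine alone wells.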 Particulars: Rattus norvegicus. Type of experiment: functional, cell-based.
Experiment [21] has as its target Arf-GAP with SH3 domain, ANK repeat and PH domain-containing protein 1 (Homo sapiens, UniProt Q9ULH1). Type of experiment: functional.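 Further: biochemical fluorescence polarization dose–response screen measuring inhibition of ASAP1; ASAP1 GAP domain stimulating GTP hydrolysis by truncated human ARF1.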
For experiment [22], the target named is T3, DNA repair protein RAD52 homolog (Homo sapiens, UniProt P43351).
T3 sequence (P43351 whole entry): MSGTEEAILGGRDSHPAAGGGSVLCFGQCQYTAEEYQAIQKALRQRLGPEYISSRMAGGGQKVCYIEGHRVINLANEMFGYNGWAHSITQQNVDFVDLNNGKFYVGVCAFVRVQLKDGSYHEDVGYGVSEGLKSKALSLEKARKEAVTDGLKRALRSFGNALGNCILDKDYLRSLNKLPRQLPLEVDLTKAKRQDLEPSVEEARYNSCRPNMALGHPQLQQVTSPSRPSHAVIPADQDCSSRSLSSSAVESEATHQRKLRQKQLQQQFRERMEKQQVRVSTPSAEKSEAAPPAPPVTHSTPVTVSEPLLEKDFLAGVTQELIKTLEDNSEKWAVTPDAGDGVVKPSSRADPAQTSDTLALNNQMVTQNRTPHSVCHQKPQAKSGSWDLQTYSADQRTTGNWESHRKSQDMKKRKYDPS
Format: functional, biochemical.

A short description of experiment [23]: Dose-response inhibition of insulin secretion in a rat insulinoma line at 5 mM glucose (AID 1117331). Type of experiment: functional, cell-based. Particulars: INS-1E.

Sequence of Paired box protein Pax-8 (Q06710 whole entry): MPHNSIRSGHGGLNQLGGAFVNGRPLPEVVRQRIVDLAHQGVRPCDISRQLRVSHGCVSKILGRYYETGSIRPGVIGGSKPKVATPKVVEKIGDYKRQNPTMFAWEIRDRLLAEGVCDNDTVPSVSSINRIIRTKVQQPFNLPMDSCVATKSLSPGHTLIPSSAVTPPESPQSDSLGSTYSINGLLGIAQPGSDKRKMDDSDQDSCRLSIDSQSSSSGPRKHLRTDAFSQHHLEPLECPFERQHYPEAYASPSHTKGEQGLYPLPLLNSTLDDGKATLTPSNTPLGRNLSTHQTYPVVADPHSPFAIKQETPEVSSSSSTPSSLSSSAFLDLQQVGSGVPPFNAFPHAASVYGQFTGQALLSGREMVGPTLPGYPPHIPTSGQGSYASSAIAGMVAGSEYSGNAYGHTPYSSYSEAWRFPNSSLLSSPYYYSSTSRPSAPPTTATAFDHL
Sequence of Arf-GAP with SH3 domain, ANK repeat and PH domain-containing protein 1 (Q9ULH1 whole entry, the tested form may be a part): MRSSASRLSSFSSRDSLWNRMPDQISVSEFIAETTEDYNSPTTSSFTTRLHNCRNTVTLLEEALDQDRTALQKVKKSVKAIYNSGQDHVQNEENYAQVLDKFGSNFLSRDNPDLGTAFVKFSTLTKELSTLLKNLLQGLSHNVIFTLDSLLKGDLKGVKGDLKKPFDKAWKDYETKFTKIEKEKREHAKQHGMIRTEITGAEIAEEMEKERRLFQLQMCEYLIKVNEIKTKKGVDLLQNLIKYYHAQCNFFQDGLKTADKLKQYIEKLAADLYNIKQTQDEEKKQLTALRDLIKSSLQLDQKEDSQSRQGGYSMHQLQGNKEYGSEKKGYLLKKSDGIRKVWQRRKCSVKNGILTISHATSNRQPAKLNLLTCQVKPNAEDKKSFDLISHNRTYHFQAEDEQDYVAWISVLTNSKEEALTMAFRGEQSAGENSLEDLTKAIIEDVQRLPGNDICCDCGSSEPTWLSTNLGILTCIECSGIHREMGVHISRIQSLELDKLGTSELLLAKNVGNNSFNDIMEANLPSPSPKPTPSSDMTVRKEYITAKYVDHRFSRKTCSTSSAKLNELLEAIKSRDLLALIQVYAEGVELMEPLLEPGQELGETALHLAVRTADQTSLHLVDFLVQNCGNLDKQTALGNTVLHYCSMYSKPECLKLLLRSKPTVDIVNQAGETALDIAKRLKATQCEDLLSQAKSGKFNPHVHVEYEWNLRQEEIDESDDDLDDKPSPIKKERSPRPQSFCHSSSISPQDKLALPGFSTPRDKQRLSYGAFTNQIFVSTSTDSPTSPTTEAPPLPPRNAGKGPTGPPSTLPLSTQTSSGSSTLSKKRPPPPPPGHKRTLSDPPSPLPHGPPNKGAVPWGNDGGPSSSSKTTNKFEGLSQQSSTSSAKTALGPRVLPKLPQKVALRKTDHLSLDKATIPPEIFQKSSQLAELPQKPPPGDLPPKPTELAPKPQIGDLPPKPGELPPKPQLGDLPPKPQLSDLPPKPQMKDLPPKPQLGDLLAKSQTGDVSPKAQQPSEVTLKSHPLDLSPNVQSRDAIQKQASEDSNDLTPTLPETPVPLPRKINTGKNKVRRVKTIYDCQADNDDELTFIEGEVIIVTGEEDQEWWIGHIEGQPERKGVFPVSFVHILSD

Regarding `C[C@@H]1CCCCO[C@H](CN(C)Cc2ccc(C(F)(F)F)cc2)[C@H](C)CN([C@@H](C)CO)C(=O)c2cc(NC(=O)Nc3ccc4c(c3)OCO4)ccc2O1`, the AC50 in experiment [1] was 40.9 µM (active); in experiment [2], 42.2 µM (active); in experiment [3], 36.8 µM (active); at Paired box protein Pax-8, 3.34 µM (active); in experiment [4] it was 48.7 µM (active).
Consider `Cc1cccc(S(=O)(=O)N2CC[C@@H]3[C@H]2c2cc(C4=CCCCC4)ccc2N[C@@H]3CO)c1`, for which the results for the half-maximal activity concentration (AC50) (in experiment [1]; in experiment [3]; at Paired box protein Pax-8) were 55.6 µM (active), > 70 µM (inactive) and 10.8 µM (active), respectively.
Take `CO[C@@H]1CN(C)C(=O)c2ccc(NC(C)=O)cc2OC[C@@H](C)N(C(=O)c2ccccc2F)C[C@H]1C`: the AC50 in experiment [5] is 0.147 µM (active).
As for `O=C(Cc1ccccn1)N1CCCCN2[C@@H](CO)[C@H](c3ccc(-c4ccccc4)cc3)[C@@H]2C1`, the concentration at half-maximal activity (AC50) in experiment [6] is 0.551 µM (active).
For `COc1ccc(/C=N/Nc2nnc(-c3ncc[nH]3)c3ccccc23)cc1`, the EC50 with H4 was 65.2 µM (active); in [7] it was 0.962 µM (active); in experiment [8], 1.93 µM (active); in [9] it was 1.34 µM (active); in experiment [10], < 0.1 µM (active); in experiment [11], > 12 µM (not active).
As for `Cc1nccn1CC(=O)N/N=C/c1ccc(O)c(O)c1`, at Protein Tat, the IC50 was 39 µM (inconclusive).
As for `COc1ccc(C(=O)N/N=C/c2cccnc2)cc1`, on Protein Tat, the IC50 is > 100 µM (active).
Take `C[C@@H]1CN([C@@H](C)CO)C(=O)c2cccc(NC(=O)c3cnccn3)c2O[C@@H]1CN(C)Cc1ccc(-c2ccccc2)cc1`: the half-maximal activity concentration (AC50) in [12] is 0.357 µM (active); in experiment [13], 0.381 µM (active); in experiment [14], 0.378 µM (active); in experiment [15], 1.14 µM (active); in [16] it was 0.0947 µM (active).
As to `C[C@H]1CN([C@@H](C)CO)C(=O)c2cccc(NC(=O)NC3CCCCC3)c2O[C@H]1CN(C)Cc1ccc(C(F)(F)F)cc1`, in experiment [14], the concentration at half-maximal activity (AC50) was 31.7 µM (active).
Turning to `OCCNc1nc(Nc2ccc(Cl)c(Cl)c2)nc2ccccc12`, the concentration giving a half-maximal response (EC50) was > 30 µM (not active) in [17] and 0.464 µM (active) in experiment [18]. In addition, the IC50 was > 20 µM (inactive) in experiment [19] and 55.3 µM (inactive) in [21]. For the same compound, the figures for the concentration at half-maximal activity (AC50) (in experiment [20]; in the experiment on INS1) were 2.43 µM (active) and 13.4 µM (active), respectively.
As for `CCCCOc1cc(C(=O)OCCN(CC)CC)ccc1N` [BENOXINATE HYDROCHLORIDE], the AC50 in experiment [22] was 33.9 µM (active). Also, in experiment [23], the IC50 is 15.5 µM (inactive).
With `CN1C(=O)CC[C@H]1c1cccnc1` [COTININE], in experiment [23], the IC50 was > 33.3 µM (inactive).

These data come from ChEMBL document CHEMBL1201862, “PubChem BioAssay data set” (2004).
